Patent US9045445B2, “Glycine transporter-1 inhibitors, methods of making them, and uses thereof” (Albany Molecular Research, Inc., priority 2010, dated 2015)
Counter-ions that a name gives are not always drawn.

Experiments:
[1] = target: T1, glycine transporter-1 (GlyT-1) (Homo sapiens, UniProt P48067); test: [14C]glycine uptake assay in JAR cells endogenously expressing GlyT-1 (scintillation proximity); type: cell-based; settings: JAR cells, [14C]glycine 5 μM, 3 hour incubation; read-out: GlyT-1 IC50
T1 construct: JAR cells (ATCC#HTB-144), which endogenously express GlyT-1; host or cells: JAR human choriocarcinoma cells
T1 sequence (P48067 1-706): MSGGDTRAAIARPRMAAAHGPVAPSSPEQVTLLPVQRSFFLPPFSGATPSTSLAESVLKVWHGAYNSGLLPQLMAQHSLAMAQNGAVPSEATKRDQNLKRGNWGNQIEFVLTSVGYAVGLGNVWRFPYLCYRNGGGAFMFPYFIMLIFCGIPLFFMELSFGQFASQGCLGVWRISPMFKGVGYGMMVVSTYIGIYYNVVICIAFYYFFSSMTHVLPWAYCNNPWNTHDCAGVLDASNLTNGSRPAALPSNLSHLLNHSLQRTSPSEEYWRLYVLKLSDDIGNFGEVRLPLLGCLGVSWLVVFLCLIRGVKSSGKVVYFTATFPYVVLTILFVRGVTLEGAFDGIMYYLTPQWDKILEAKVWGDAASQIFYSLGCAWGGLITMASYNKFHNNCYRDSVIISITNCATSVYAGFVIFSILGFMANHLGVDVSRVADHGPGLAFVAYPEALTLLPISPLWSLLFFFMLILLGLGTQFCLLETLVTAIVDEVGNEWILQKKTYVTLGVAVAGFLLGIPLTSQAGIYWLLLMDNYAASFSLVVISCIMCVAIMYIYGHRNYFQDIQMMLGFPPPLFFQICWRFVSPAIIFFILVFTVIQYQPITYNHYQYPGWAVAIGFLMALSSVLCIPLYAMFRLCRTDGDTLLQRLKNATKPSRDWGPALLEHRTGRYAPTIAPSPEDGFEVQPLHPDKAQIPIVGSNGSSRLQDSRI
Outline: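 IC50 comes from a four-parameter fit of nine-point, duplicate curves measuring inhibition of 5 μM [14C]glycine uptake, read by scintillation proximity after 3 h at 37 °C. Cells are human JAR, which express GlyT-1 endogenously, given 10 min compound pre-treatment in pH 7.4 buffer with 5 mM alanine and 0.75% DMSO.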

[2] = target: T2, glycine transporter-2 (GlyT-2) (Homo sapiens, UniProt Q9Y345); test: [14C]glycine uptake assay in HEK-GlyT-2 transfected cells; type: cell-based; settings: HEK-GlyT-2 cells
T2 construct: expressed in transfected cells
T2 sequence (Q9Y345 1-797): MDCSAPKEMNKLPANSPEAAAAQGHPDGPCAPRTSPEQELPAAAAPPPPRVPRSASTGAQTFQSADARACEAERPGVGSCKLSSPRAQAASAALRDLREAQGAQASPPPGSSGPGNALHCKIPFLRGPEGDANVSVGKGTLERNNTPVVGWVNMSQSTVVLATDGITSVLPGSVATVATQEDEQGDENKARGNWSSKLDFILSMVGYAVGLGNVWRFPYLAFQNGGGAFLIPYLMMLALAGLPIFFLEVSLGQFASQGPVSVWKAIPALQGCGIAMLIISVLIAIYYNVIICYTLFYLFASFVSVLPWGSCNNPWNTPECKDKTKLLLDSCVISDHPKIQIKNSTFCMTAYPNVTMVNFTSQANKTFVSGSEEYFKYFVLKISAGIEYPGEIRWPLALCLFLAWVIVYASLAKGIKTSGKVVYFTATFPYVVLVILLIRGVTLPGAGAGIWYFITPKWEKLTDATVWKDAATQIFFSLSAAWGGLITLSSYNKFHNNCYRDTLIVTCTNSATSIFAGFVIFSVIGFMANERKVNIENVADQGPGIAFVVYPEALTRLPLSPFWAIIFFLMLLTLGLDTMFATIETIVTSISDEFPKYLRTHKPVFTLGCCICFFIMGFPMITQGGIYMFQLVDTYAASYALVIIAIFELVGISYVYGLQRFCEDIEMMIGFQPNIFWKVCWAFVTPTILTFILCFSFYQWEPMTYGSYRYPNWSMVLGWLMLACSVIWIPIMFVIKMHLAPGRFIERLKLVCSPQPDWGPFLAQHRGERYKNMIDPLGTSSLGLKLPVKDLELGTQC

CCCS(=O)(=O)N1CCN(C2(CNC(=O)c3ccc(C(F)(F)F)cc3)CCCCCC2)CC1 [compound 61, N-((1-(4-(Propylsulfonyl)piperazin-1-yl)cycloheptyl)methyl)-4-(trifluoromethyl) benzamide Hydrochloride]
IC50 [1]: 105 nM
IC50 [2]: 28000 nM

CCCS(=O)(=O)N1CCN(C2(CNC(=O)c3c(OC)cc(C(F)(F)F)cc3C(F)(F)F)CCCCCC2)CC1 [compound 70, 2-Methoxy-N-((1-(4-(propylsulfonyl)piperazin-1-yl)cycloheptyl)methyl)-4,6-bis(trifluoromethyl) benzamide Hydrochloride]
IC50 [1]: 9 nM
IC50 [2]: > 75000 nM

Cn1cnc(S(=O)(=O)N2CCN(C3(CNC(=O)c4c(Cl)cccc4C(F)(F)F)CCC(F)(F)CC3)CC2)c1 [compound 185, 2-Chloro-N-((4,4-difluoro-1-(4-(1-methyl-1H-imidazol-4-ylsulfonyl)piperazin-1-yl)cyclohexyl)methyl)-6-(trifluoromethyl)benzamide Hydrochloride]
IC50 [1]: 6 nM
IC50 [2]: > 75000 nM

CCCS(=O)(=O)N1CCN(C2(CNC(=O)c3ccc(C(F)(F)F)cc3)CCCCC2)CC1 [compound 7, N-((1-(4-(Propyl-sulfonyl)piperazin-1-yl)cyclohexyl)methyl)-4-(trifluoromethyl) benzamide Hydrochloride]
IC50 [1]: 126 nM
IC50 [2]: > 30000 nM

CCCS(=O)(=O)N1CCN(C2(CNC(=O)c3ccc(Cl)cc3Cl)CCCOC2)CC1 (centres unmarked) [compound 125, 2,4-Dichloro-N-((3-(4-(propylsulfonyl)piperazin-1-yl)tetrahydro-2H-pyran-3-yl)methyl)benzamide Hydrochloride]
IC50 [1]: 177 nM
IC50 [2]: > 75000 nM

CCCS(=O)(=O)N1CCN(C2(CNC(=O)c3ccc(Cl)cc3C)CCCCC2)CC1 [compound 9, 4-Chloro-2-methyl-N-((1-(4-(propylsulfonyl)piperazin-1-yl)cyclohexyl)methyl) benzamide Hydrochloride]
IC50 [1]: 22 nM
IC50 [2]: > 75000 nM

Cn1cnc(S(=O)(=O)N2CCN(C3(CNC(=O)c4c(F)cccc4F)CCOCC3)CC2)c1 [compound 124, 2,6-Difluoro-N-((4-(4-(1-methyl-1H-imidazol-4-ylsulfonyl)piperazin-1-yl)tetrahydro-2H-pyran-4-yl)methyl)benzamide Hydrochloride]
IC50 [1]: 337 nM
IC50 [2]: > 75000 nM

Cn1cc(S(=O)(=O)N2CCN(C3(CNC(=O)c4ccc(Cl)cc4Cl)CCC(F)(F)CC3)CC2)nn1 [compound 228, 2,4-Dichloro-N-((4,4-difluoro-1-(4-(1-methyl-1H-l,2,3-triazol-4-ylsulfonyl)piperazin-1-yl)cyclohexyl)methyl) benzamide Hydrochloride]
IC50 [1]: 1 nM
IC50 [2]: > 75000 nM

Nc1cccc(Cl)c1C(=O)NCC1(N2CCN(S(=O)(=O)c3ccccc3)CC2)CCCCC1 [compound 89, 2-Amino-6-chloro-N-((1-(4-(phenylsulfonyl)piperazin-1-yl)cyclohexyl)methyl) benzamide Hydrochloride]
IC50 [1]: 2290 nM
IC50 [2]: > 75000 nM

CCCS(=O)(=O)N1CCN(C2(CNC(=O)c3ccc(C(F)(F)F)cc3Cl)CCC(F)(F)CC2)C(C)C1 (centres unmarked) [compound 257, 2-Chloro-N-((4,4-difluoro-1-(2-methyl-4-(propylsulfonyl)piperazin-1-yl)cyclohexyl)methyl)-4-(trifluoromethyl) benzamide Hydrochloride]
IC50 [1]: 18 nM
IC50 [2]: > 75000 nM

CCCS(=O)(=O)N1CCN(C2(CNC(=O)c3ccc(Br)cc3C)CCCCC2)CC1 [compound 18, 4-Bromo-2-methyl-N-((1-(4-(propylsulfonyl)piperazin-1-yl)cyclohexyl)methyl) benzamide Hydrochloride]
IC50 [1]: 28 nM
IC50 [2]: > 75000 nM

O=C(NCC1(N2CCN(S(=O)(=O)N3CCCC3)CC2)CCC(F)(F)CC1)c1ccc(C(F)(F)F)cc1Cl [compound 270, 2-Chloro-N-((4,4-difluoro-1-(4-(pyrrolidin-1-ylsulfonyl)piperazin-1-yl)cyclohexyl)methyl)-4-(trifluoromethyl)benzamide Hydrochloride]
IC50 [1]: 47 nM
IC50 [2]: > 75000 nM

CCCS(=O)(=O)N1CCN(C2(CNC(=O)c3c(F)ccc(F)c3Cl)CCCCCC2)CC1 [compound 54, 2-Chloro-3,6-difluoro-N-((1-(4-(propylsulfonyl)piperazin-1-yl)cycloheptyl)methyl) benzamide Hydrochloride]
IC50 [1]: 20 nM
IC50 [2]: > 75000 nM

Cn1cc(S(=O)(=O)N2CCN(C3(CNC(=O)c4ccc(C(F)(F)F)cc4F)CCC(F)(F)CC3)CC2)nn1 [compound 232, N-((4,4-Difluoro-1-(4-(1-methyl-1H-1,2,3-triazol-4-ylsulfonyl)piperazin-1-yl)cyclohexyl)methyl)-2-fluoro-4-(trifluoromethyl)benzamide Hydrochloride]
IC50 [1]: 6 nM
IC50 [2]: > 75000 nM

CCCS(=O)(=O)N1CCN(C2(CNC(=O)c3c(C)cccc3C)CCOCC2)CC1 [compound 120, 2,6-Dimethyl-N-((4-(4-(propylsulfonyl)piperazin-1-yl)tetrahydro-2H-pyran-4-yl)methyl)benzamide Hydrochloride]
IC50 [1]: 175 nM
IC50 [2]: 41300 nM

CCCS(=O)(=O)N1CCN(C2(CNC(=O)c3c(N)cccc3Cl)CCCCCC2)CC1 [compound 56, 2-Amino-6-chloro-N-((1-(4-(propylsulfonyl)piperazin-1-yl)cycloheptyl)methyl) benzamide Hydrochloride]
IC50 [1]: 6 nM
IC50 [2]: 39000 nM

CCCS(=O)(=O)N1CCN(C2(CNC(=O)c3cccc(OC)c3Cl)CCCCCC2)CC1 [compound 65, 2-Chloro-3-methoxy-N-((1-(4-(propylsulfonyl)piperazin-1-yl)cycloheptyl)methyl) benzamide Hydrochloride]
IC50 [1]: 204 nM
IC50 [2]: > 75000 nM

CCCS(=O)(=O)N1CCN(C2(CNC(=O)c3cc(F)c(F)cc3Cl)CCC(F)(F)CC2)CC1 [compound 264, 2-Chloro-N-((4,4-difluoro-1-(4-(propylsulfonyl)piperazin-1-yl)cyclohexyl)methyl)-4,5-difluorobenzamide Hydrochloride]
IC50 [1]: 48 nM
IC50 [2]: > 75000 nM

CCCS(=O)(=O)N1CCN(C2(CNC(=O)c3ccccc3C)CCCCC2)CC1 [compound 42, 2-Methyl-N-((1-(4-(propylsulfonyl)piperazin-1-yl)cyclohexyl)methyl) benzamide Hydrochloride]
IC50 [1]: 118 nM
IC50 [2]: > 35000 nM

CCCS(=O)(=O)N1CCN(C2(CNC(=O)c3ccc(C#N)cc3)CCCCC2)CC1 [compound 17, 4-Cyano-N-((1-(4-(propylsulfonyl)piperazin-1-yl)cyclohexyl)methyl) benzamide Hydrochloride]
IC50 [1]: 647 nM
IC50 [2]: > 75000 nM

CCCS(=O)(=O)N1CCN(C2(CNC(=O)c3c(Cl)cc(C(F)(F)F)cc3Cl)CCC(F)(F)CC2)CC1 [compound 258, 2,6-Dichloro-N-((4,4-difluoro-1-(4-(propylsulfonyl)piperazin-1-yl)cyclohexyl)methyl)-4-(trifluoromethyl) benzamide Hydrochloride]
IC50 [1]: 9 nM
IC50 [2]: > 75000 nM

Cc1cccc(F)c1C(=O)NCC1(N2CCN(S(=O)(=O)CC3CC3)CC2)CCCCC1 [compound 80, N-((1-(4-(Cyclopropylmethyl-sulfonyl)piperazin-1-yl)cyclohexyl)methyl)-2-fluoro-6-methylbenzamide Hydrochloride]
IC50 [1]: 29 nM
IC50 [2]: > 75000 nM
